Here are results for three substances from patent US20070258941A1, “Methods and compositions for remediation of disc herniation by modifying structure” (priority 2006, published 2007).

“And” between values parts separate entries of the source, which are not always exact repeats. Equal entries are not always repeated.

Data set [1] relates to rabbit lumbar intervertebral discs. Nature of the data set: Effect of polylysine on disc height (disc height index, DHI) after injection into rabbit lumbar discs. In kind it is in vivo. The settings on record: for L2/3 DHI, Average / L2/3 DHI: injected disc L2/3; for L2/3 DHI, Average / L4/5 DHI, Average: average of six animals; for L2/3 DHI, Average / L2/3 DHI / L4/5 DHI, Average / L4/5 DHI: untreated L3/4 disc = 100; for L2/3 DHI / L4/5 DHI: individual animals 1-6; for L4/5 DHI, Average / L4/5 DHI: injected disc L4/5. On the procedure: FIG. 1 is a set of bar graphs showing intervertebral disc heights in rabbits injected with 30-70 kDa polylysine at each of lumbar 2/3 and 4/5, compared with heights of control untreated lumbar discs 3/4 (100%). Disc heights were measured at each of two weeks (FIG. 1, Panel A), four weeks (FIG. 1, Panel B), and six weeks (FIG. 1, Panel C). A decrease in the DHI of approximately 20% was maintained for 6 weeks in this study.
Statistical Analyses: Statistical analyses were performed by one way ANOVA with Fisher's PLSD test as a post hoc test.
Rabbit discs (six animals) were injected with 30-70 kDa polylysine into discs L4/5 and L2/3. As controls, the L3/4 discs were untreated in each of the animals.
Disc height was measured at each of 2, 4 and 6 weeks after injection, and the normalized percentages of starting disc heights observed are shown in FIG. 1. Disc height was reduced by the treatment to about 80% of the initial values, and the decrease of 20% was maintained for the full 6-week observation period.

Data set [2] concerns bovine cartilage explants. Kind of data set: Distribution kinetics / permeation of FITC-labeled polylysine into cartilage explants (fluorescence of cryostat sections). In kind it is in vitro ADME. As to conditions: for time for permeation to achieve maximal levels (completed): FITC-labeled polymer, cartilage explants submerged in solution. The method, then: FIG. 2 is a set of photographs of bovine cartilage explants that were incubated with FITC-labeled polylysine (15-30 kDa in size, panels F, G, H, I, and J; and 30-70 kDa in size, panels K, L, M, N, and O) or control untreated cartilage (FIG. 2 panels A, B, C, D, and E). Photographs were taken at each of time points 0.5 hour (FIG. 2, panels A, F, and K), 1.0 hour (FIG. 2, panels B, G, and L), 3 hours (FIG. 2, panels C, H, and M), 7 hours (FIG. 2, panels D, I, and N) and 12 hours (FIG. 2, panels E, J, and O).
After a predetermined time, tissue was washed, frozen, and 10 micron sections were produced using a cryostat.

For the substance polylysine [30-70 kDa polylysine], in data set [1] (2 weeks after injection), the “L2/3 DHI, Average” value was 79.48%; the “L2/3 DHI” value is 77.13% and 68.43% and 70.29% and 91.98% and 80.01% and 89.04%; the “L4/5 DHI, Average” value came to 78.67%; the “L4/5 DHI” value was 90.03% and 77.07% and 77.69% and 72.34% and 81.34% and 73.56%. Further, in data set [1] (4 weeks after injection), the “L2/3 DHI, Average” value is given as 74.86%; the “L2/3 DHI” value is 79.11% and 93.42% and 80.98% and 66.08% and 63.83% and 65.74%; the “L4/5 DHI, Average” value was found to be 79.65%; the “L4/5 DHI” value was 79.68% and 93.65% and 66.64% and 79.43% and 73.86% and 84.63%. In data set [1] (6 weeks after injection), the “L2/3 DHI, Average” value turned out to be 79.51%; the “L2/3 DHI” value was 78.77% and 93.30% and 96.63% and 65.59% and 73.66% and 69.09%; the “L4/5 DHI, Average” value is given as 81.57%; the “L4/5 DHI” value was 87.13% and 96.43% and 81.53% and 83.27% and 61.60% and 79.46%. Also, the “disc height after treatment, of the initial values” in data set [1] (rabbit discs L2/3 and L4/5, 2, 4 and 6 weeks after injection) is listed as “about 80%”.
For the substance polylysine [longer polymer], the “time for permeation to achieve maximal levels (completed)” value in data set [2] is 7 to 12 h.
Consider polylysine [shorter cationic polymer], for which, in data set [2], the “time for permeation to achieve maximal levels (completed)” value was 3 to 7 h. For the same substance, the “rapidity of permeation of cartilage” value in data set [2] (compared to the longer chain length (30-70 kDa)) is listed as “enhanced”.
